For five compounds, Selectivity ratio, Ratio IC50 and inhibition results are on record in ChEMBL document CHEMBL1137510, “Discovery of potent T-type calcium channel blocker” (Bioorg Med Chem Lett, 2007).

The structures appear in SMILES notation. Bounds are passed on as bounds.

Holding throughout (format): cell-based
In assay [1] the test system is HEK293. In words: Selectivity for Alpha-1B N-type calcium channel over alpha-1G T-type calcium channel expressed in HEK293 cells at 10 uM. To be noted: Homo sapiens.
The test system of assay [2] is HEK293. Nature of the assay: Selectivity for alpha-1B N-type calcium channel over alpha1G T-type calcium channel expressed in HEK293 cells. As to conditions: Homo sapiens.
In assay [3] the target is Voltage-dependent T-type calcium channel subunit alpha-1G (Homo sapiens) (UniProt O43497). Nature of the assay: Inhibition of T-type calcium channel Cav3.1 alpha-1G subunit expressed in HEK293 cells assessed as calcium current at 10 uM by high throughput screening.
Sequence of Voltage-dependent T-type calcium channel subunit alpha-1G (Homo sapiens) (O43497 whole entry): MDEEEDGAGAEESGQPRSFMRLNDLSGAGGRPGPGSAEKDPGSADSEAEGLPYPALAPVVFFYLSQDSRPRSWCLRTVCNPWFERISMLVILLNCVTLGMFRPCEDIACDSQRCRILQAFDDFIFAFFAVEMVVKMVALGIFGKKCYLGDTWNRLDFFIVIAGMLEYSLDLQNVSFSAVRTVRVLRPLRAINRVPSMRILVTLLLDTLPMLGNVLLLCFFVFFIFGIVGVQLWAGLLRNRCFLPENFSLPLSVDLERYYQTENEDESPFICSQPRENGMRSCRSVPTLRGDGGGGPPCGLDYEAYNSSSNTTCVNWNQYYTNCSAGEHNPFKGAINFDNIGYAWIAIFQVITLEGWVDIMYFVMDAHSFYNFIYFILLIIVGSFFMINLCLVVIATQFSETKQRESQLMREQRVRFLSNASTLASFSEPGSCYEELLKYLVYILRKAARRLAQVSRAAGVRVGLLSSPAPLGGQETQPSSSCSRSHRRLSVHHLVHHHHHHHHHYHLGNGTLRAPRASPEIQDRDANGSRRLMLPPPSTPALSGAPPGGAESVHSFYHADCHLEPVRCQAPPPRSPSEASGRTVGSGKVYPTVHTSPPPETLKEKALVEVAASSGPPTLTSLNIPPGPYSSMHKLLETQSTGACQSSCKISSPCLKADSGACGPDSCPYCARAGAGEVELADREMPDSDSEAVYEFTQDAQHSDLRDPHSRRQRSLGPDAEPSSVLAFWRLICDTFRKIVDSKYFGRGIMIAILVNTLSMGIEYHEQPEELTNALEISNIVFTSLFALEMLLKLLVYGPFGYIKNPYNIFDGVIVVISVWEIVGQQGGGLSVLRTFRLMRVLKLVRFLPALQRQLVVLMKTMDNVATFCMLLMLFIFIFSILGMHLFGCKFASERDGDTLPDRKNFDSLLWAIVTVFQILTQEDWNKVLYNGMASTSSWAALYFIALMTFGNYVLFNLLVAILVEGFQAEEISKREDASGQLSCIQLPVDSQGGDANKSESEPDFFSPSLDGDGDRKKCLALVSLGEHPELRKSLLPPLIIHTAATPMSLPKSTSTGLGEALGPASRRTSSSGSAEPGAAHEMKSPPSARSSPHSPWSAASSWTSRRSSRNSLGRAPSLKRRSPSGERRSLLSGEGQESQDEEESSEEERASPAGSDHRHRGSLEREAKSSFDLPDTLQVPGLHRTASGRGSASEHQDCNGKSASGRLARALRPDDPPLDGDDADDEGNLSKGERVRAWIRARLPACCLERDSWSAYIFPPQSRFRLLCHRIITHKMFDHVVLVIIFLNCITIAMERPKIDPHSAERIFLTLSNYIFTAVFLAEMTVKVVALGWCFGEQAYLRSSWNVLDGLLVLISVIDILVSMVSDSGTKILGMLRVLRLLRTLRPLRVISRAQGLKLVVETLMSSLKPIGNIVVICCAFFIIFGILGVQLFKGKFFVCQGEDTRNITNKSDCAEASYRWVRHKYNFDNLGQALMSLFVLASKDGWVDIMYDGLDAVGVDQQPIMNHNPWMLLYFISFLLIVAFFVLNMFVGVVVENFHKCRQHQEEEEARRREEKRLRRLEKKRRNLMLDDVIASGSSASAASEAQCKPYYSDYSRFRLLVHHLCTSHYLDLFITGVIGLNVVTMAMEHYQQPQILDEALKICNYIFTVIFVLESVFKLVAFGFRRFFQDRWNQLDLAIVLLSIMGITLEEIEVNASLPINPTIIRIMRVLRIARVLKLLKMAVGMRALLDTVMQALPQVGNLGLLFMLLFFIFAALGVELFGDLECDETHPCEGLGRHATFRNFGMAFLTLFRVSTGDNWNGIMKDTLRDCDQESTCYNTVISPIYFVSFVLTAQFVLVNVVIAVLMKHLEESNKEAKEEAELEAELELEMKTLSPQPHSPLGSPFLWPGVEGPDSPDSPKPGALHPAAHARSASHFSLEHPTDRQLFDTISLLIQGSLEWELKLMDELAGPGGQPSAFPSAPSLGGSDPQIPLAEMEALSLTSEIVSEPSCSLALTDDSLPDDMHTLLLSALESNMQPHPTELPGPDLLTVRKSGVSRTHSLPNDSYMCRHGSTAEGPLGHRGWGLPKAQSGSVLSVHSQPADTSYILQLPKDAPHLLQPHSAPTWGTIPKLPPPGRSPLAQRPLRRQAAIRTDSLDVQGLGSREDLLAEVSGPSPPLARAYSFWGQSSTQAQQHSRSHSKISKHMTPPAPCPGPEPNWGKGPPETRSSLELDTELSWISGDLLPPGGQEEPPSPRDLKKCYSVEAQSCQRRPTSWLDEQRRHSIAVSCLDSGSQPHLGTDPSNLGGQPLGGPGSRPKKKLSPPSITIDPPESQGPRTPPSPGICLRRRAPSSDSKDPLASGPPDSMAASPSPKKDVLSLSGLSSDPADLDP
Assay [4] concerns the target Voltage-dependent N-type calcium channel subunit alpha-1B (Homo sapiens) (UniProt Q00975). In words: Inhibition of N-type calcium channel […] alpha-1B subunit expressed in HEK293 cells assessed as calcium current at 10 uM by patch-clamp assay. Background: In patch-clamp work, channel activity is measured electrically.
Assay [5] addresses Voltage-dependent T-type calcium channel subunit alpha-1G (Homo sapiens) (UniProt O43497). Nature of the assay: Inhibition of T-type calcium channel Cav3.1 alpha-1G subunit expressed in HEK293 cells assessed as calcium current at 10 uM by patch-clamp assay.

Sequence of Voltage-dependent N-type calcium channel subunit alpha-1B (Homo sapiens) (Q00975 whole entry, looked up): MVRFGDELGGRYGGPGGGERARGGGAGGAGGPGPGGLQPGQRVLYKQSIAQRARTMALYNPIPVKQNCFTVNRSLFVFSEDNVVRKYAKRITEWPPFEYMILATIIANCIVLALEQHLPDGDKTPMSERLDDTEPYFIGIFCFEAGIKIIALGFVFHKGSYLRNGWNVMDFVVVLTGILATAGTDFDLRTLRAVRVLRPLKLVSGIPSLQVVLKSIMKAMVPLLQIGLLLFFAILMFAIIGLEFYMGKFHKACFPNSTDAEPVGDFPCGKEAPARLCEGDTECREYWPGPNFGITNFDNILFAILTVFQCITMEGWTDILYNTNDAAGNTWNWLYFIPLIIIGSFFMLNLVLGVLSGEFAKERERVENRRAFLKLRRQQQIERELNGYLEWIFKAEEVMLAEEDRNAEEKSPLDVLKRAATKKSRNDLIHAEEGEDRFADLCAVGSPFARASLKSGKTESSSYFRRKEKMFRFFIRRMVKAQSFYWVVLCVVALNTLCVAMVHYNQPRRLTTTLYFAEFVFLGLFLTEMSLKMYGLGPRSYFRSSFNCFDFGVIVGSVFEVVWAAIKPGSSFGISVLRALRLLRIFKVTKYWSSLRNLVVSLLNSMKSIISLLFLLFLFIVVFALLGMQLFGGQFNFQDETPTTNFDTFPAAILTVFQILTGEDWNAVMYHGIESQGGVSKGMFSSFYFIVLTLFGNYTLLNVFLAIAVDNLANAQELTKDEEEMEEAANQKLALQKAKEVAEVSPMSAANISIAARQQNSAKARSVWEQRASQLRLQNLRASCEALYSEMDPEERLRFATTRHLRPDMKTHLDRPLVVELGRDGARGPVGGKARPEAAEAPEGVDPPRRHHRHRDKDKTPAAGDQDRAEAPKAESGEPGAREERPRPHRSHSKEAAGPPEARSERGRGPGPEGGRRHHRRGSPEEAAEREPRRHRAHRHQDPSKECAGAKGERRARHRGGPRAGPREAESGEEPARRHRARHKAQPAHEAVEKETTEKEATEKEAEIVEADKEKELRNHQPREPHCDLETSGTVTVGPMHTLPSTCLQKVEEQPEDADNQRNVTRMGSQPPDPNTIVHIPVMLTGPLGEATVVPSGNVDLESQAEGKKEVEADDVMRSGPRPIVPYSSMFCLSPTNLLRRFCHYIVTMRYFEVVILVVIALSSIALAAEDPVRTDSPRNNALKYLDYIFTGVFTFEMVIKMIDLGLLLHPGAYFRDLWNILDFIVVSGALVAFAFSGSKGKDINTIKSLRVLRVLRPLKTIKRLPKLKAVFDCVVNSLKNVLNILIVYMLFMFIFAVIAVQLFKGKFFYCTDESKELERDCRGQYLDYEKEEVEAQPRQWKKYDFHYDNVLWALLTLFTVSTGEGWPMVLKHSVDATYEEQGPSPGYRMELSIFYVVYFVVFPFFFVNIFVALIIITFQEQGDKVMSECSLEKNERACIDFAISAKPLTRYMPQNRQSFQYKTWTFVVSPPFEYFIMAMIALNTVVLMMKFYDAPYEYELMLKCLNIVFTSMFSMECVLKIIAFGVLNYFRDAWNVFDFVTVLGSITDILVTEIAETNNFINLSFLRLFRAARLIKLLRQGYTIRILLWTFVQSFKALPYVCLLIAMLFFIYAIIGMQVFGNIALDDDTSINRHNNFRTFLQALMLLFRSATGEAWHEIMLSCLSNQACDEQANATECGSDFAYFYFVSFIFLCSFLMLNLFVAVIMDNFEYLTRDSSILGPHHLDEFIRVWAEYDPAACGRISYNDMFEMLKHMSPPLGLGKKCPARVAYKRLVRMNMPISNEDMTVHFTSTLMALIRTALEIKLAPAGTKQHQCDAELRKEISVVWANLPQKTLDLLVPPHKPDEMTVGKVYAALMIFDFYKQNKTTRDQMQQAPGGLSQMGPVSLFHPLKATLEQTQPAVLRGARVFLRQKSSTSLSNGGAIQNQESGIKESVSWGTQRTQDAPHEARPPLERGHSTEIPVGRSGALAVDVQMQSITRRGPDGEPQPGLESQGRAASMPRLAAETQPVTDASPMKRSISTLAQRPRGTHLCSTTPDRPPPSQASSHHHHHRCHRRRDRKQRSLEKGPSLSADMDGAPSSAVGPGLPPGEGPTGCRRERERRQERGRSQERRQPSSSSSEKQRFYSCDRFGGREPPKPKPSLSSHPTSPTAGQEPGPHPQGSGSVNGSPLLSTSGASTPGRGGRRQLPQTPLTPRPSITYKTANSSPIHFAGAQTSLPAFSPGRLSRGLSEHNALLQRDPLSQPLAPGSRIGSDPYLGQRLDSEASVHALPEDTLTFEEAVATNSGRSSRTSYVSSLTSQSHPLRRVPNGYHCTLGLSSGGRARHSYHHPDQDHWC

Usually inhibition stands for the percentage by which the read-out fell short of the control. With `CN(C)CCCCCN(C)C1=Nc2ccccc2C(CC(=O)NCc2ccccc2)N1c1ccc(-c2ccccc2)cc1` (stereo not drawn), the Selectivity ratio with HEK293 [1] was 1.4. Besides, the Ratio IC50 in the assay on HEK293 [2] is 120. For the same compound, the inhibition in assay [3] was 42.9%; in assay [4], 70.6%; in assay [5], 98%.

As to `O=C(CC1c2ccccc2N=C(N2CCCCC2)N1c1ccccc1)NCc1ccccc1` (stereo not drawn), the Selectivity ratio in the assay on HEK293 [1] came to 3.2. Further, the inhibition in assay [4] was 28.1%.

Turning to `COCC(=O)O[C@]1(CCN(C)CCCc2nc3ccccc3[nH]2)CCc2cc(F)ccc2[C@@H]1C(C)C`, the inhibition in assay [3] was 77.6%.

`COC(=O)CC1c2ccccc2N=C(NCCCCCN)N1c1ccc(-c2ccccc2)cc1` (stereo not drawn): the Selectivity ratio in the assay on HEK293 [1] is more than 100.

With `COC(=O)CC1c2ccccc2N=C(N(C)CCCCCN(C)C)N1c1ccc(-c2ccccc2)cc1` (stereo not drawn), the Selectivity ratio in the assay with HEK293 [1] was 3.7. Further, the figures for the inhibition in assay [3], in assay [4] and in assay [5] were 57.9%, 24.4% and 90.1%, respectively.
